Data as given in patent US10238630B2, “Use of eribulin and poly (ADP ribose) polymerase (PARP) inhibitors as combination therapy for the treatment of cancer” (Eisai R&D Management Co., Ltd., priority 2014, dated 2019).
“Also recorded” adds a separate entry of the source. Counter-ions that a name gives are not always drawn.

Legend:
[1] = system: MDA-MB-231 human breast cancer xenografts; assay: Antitumor activity against subcutaneous MDA-MB-231 human breast cancer xenografts in athymic mice (two studies); type: in vivo
Experimental: MDA-MB-231 human triple negative breast cancer cells are wild type for BRCA1 and 2 and PTEN. Cells were maintained in monolayer cultures in RPMI-1640 growth medium supplemented with 10% fetal bovine serum at 37° C. in a 5% CO2 humidified incubator. On the day of inoculation, cells were harvested by trypsinization, washed, and resuspended in ice-cold PBS. Female immunodeficient athymic mice were inoculated subcutaneously near the right axillary area with MDA-MB-231 cells (5×10^6) in a 1:1 ratio (50 μL each) with Matrigel™ in a volume of 0.1 mL in phosphate buffered saline, using a 26-gauge needle. A total of 94 mice, approximately 6 weeks old were implanted with MDA-MB-231 cells.
E7449, carboplatin and E7389 were evaluated as single agents and in combination for antitumor activity against MDA-MB-231 human breast cancer xenografts in athymic mice. The first experiment consisted of a vehicle control group, an E7449 single agent group, 2 groups treated with single agent E7389 and 2 combination drug-treated groups (Table 5). Thirty-nine mice were inoculated with MDA-MB-231 cells and on Day 21 following implantation, tumor volumes were measured and mice were randomized into the 6 treatment groups based on tumor volume (average of 300 mm^3). Following randomization drug treatment was initiated. Each group was composed of 5 mice for a total of 30 mice on the first day of treatment. E7449 was formulated in 0.5% methyl cellulose and orally administered once daily for 28 days at 100 mg/kg based on body weight at 0.1 mL per 10 g. E7389 was formulated in saline and was intravenously administered once every 4 days, 4 times (Day 21, 25, 29, and 33) at a dosage of 0.05 or 0.1 mg/kg as single agent or in combination with E7449, based on body weight at 0.1 mL per 10 g. The control group was treated with oral vehicle (0.5% methyl cellulose in water) daily and intravenous vehicle (saline) once every 4 days, 4 times. E7449 or vehicle was administered first and when dosing of all animals was complete E7389 was administered to animals receiving the combination.
The second experiment consisted of a vehicle control group, 2 groups treated with single agent E7449, 2 groups treated with single agent carboplatin and 3 combination drug-treated groups (Table 6). Fifty five mice were inoculated with MDA-MB-231 cells and on Day 18 following implantation, tumor volumes were measured and mice were randomized into 8 treatment groups based on tumor volume (average of 300 mm^3). Following randomization drug treatment was initiated. Each group consisted of 5 mice for a total of 40 mice on the first day of treatment. E7449, formulated in 0.5% methyl cellulose was orally administered daily for 28 days, at 60 or 100 mg/kg based on body weight at 0.1 mL per 10 g. Carboplatin was formulated in saline and was intravenously administered once on the first day of treatment (Day 18) at a dosage of 15 or 60 mg/kg as a single agent or in combination with E7449 based on body weight at 0.1 mL per 10 g. The control group was treated with oral vehicle (0.5% methyl cellulose in water) daily and intravenous vehicle (saline) once on Day 18. E7449 or vehicle was administered first and when dosing of all animals was complete carboplatin was administered to animals receiving the combination.
Drug treatment was initiated 21 or 18 days post tumor implantation, in the E7389 and carboplatin combination studies respectively, and continued for 28 days. […]

[2] = system: poly (ADP-ribose) (PAR) levels; assay: Pharmacodynamic biomarker analysis of poly (ADP-ribose) (PAR) levels in triple negative breast cancer xenograft tumor lysates; type: in vivo
Experimental: PAR levels rebounded at 24 hours in all models. […] In the HCC1806 (wild type for BRCA and PTEN) tumor lysate, E7389 treatment alone increased PAR at 24 and 48 hours.

[3] = system: total Akt levels; assay: Pharmacodynamic biomarker analysis of total Akt and PI3K pathway proteins in tumor lysates by reverse phase protein microarray (RPMA); type: in vivo
Experimental: Multiple proteins in the P13K pathway were assessed by reverse phase protein microarray (RPMA) in tumor lysates. Akt levels decreased in all models except MDA-MB-231 (wild type for BRCA1 and 2 and PTEN) following single agent and combination treatments. This effect is specific for Akt as no changes in total PI3K, Erk, or Src were observed. Phosphorylated Akt (S473 & T308) decreased by E7389 and combination treatment at 48 hours in MDA-MB-468 tumors. […] No significant effects of treatment were observed on phosphorylated Src (Y527) levels in any tumor models.

[4] = system: BR1474; assay: Antitumor effect in patient-derived xenograft (PDx) BR1474 of triple negative breast cancer in athymic mice; type: in vivo, human
[5] = HCC1806 tumors, early time points

Row | SMILES | inhibition of tumor growth versus vehicle ([1]; E7389 0.1 mg/kg IV Q4Dx4, single agent, P<0.05 on Day 42, 0.1 mg/kg) | antitumor effect (tumor volume), dose dependence ([1]; E7389 0.05 and 0.1 mg/kg IV Q4Dx4, single agent) | PARP activity in tumor lysates ([2]; E7389 treatment alone) | PAR levels in tumor lysates ([2]; HCC1806 tumor lysate, E7389 alone, 24 and 48 hours) | phosphorylated Akt (S473 & T308) ([3]; MDA-MB-468 tumors, 48 hours) | antitumor effect (tumor volume) ([4]; E7389 0.3 mg/kg, single agent) | antitumor effect (tumor volume) ([1]; E7389 combination study, E7449 100 mg/kg PO QDx28, single agent, 100 mg/kg) | antitumor effect (tumor volume) ([1]; carboplatin combination study, E7449 60 or 100 mg/kg PO QDx28, single agent) | PARP inhibition / PAR levels in tumor lysates ([2]; 6 hours, MDA-MB-436, MDA-MB-468, MDA-MB-231 and HCC1806 tumor lysates) | PAR levels in tumor lysates ([2]; 24 hours, all four models) | phosphorylated Akt (S473 & T308) [3, 5] | phosphorylated Erk (T202/Y204) [3, 5] | sensitivity of the model among the three PDx models ([4]; E7449 as a single agent)
1 | C=C1C[C@@H]2CC[C@@]34C[C@H]5OC6[C@@H](O[C@H]7CC[C@H](CC(=O)C[C@@H]8[C@@H](OC)[C@@H](C[C@H](O)CN)O[C@H]8C[C@H]8O[C@@H](CC[C@@H]1O2)C[C@@H](C)C8=C)O[C@@H]7[C@@H]6O3)[C@H]5O4 [E7389, 11, 15:18,21:24,28-triepoxy-7,9-ethano-12,15-methano-9H,15H-furo[3,2-i]furo[2′,3′:5,6]pyrano[4,3-b] [1,4]dioxacyclopentacosin-5(4H)-one, 2-[(2S)-3-amino-2-hydroxypropyl]hexacosahydro-3-methoxy-26-methyl-20,27-bis(methylene)-, (2R,3R,3aS,7R,8aS,9S,10aR,11S,12R,13aR,13bS,15S,18S,21S,24S,26R,28R,29aS)-methanesulfonate (salt)] | statistically significant effect; also recorded: Statistically significant inhibition of tumor growth | Dose dependent antitumor activity | did not inhibit PARP activity | increased PAR | decreased | enhanced antitumor activity | – | – | – | – | – | – | –
2 | O=c1[nH]nc2c3c(cccc13)N=C(CN1Cc3ccccc3C1)N2 [E7449] | – | – | – | – | – | – | did not significantly inhibit tumor growth; also recorded: No antitumor activity | did not significantly inhibit tumor growth; also recorded: No antitumor activity | complete PARP inhibition | rebounded | Increased | Increased | most sensitive
